Legend:
[1] = system: LPS-pretreated mice; assay: Effect of minocycline on MCC22 antinociception in LPS-pretreated mice (tail flick); assay type: in vivo; conditions: for MPE after minocycline: MCC22 1 pmol/mouse i.t.
Experimental: Effect of Minocycline in Mice Pretreated by LPS and Blockage of Antinociception of MCC22.
Three separate groups of mice (n=8) were pretreated with 1 mg/kg of LPS (i.p.). At 24 hours the baseline antinociception was measured using the tail flick assay to calculate % MPE. […] […] The dose used for MCC22 is a hundred times the ED50 dose of LPS pretreated mice with MCC22.

[2] = system: mice with cisplatin-induced hyperalgesia; assay: Cisplatin-induced peripheral neuropathy, mechanical hyperalgesia (von Frey); assay type: in vivo, C3H/HeJ mice; conditions: cisplatin model
Experimental: Adult male C3H/HeJ mice were tested for mechanical paw withdrawal responses on 2 consecutive days prior to treatment by determining the frequency of hind paw withdrawal evoked by a standard von Frey monofilament with a bending force of 3.9 mN applied to the plantar surface of the hind paws. Mice were then given 1 mg/kg of cisplatin intraperitoneal (i.p.) daily for 7 consecutive days and on day 14 post-injection, mechanical hyperalgesia was assessed. Compounds were administered intrathecally (i.t.) and i.p. weekly to determine peak time effects and ED50/80.

Question: Which MPE after minocycline ([1]; 60 min after minocycline 45 mg/kg i.p., LPS pretreated) does the source give for `Cc1ccc(N(CCCN2CCC(Cc3ccc(C(N)=O)cc3)CC2)C(=O)C2CCN(C(=O)COCC(=O)NCCCCCCCCCCNC(=O)COCC(=O)N[C@H]3CC[C@@]4(O)C5Cc6ccc(O)c7c6[C@@]4(CCN5C)[C@H]3O7)CC2)cc1Cl` [Compound 3e, N-(3-(4-(4-carbamoylbenzyl)piperidin-1-yl)propyl)-N-(3-chloro-4-methylphenyl)-1-(22-(((4aS,7S,7aR,12bS)-4a,9-dihydroxy-3-methyl-2,3,4,4a,5,6,7,7a-octahydro-1H-4,12-methanobenzofuro[3,2-e]isoquinolin-7-yl)amino)-5,18,22-trioxo-3,20-dioxa-6,17-diazadocosan-1-oyl)piperidine-4-carboxamide] here?
Answer: 100%

Question: And the MPE after minocycline ([1]; 120 min after minocycline 45 mg/kg i.p., LPS pretreated)?
Answer: 52.04%±17.04

Question: And the MPE after minocycline ([1]; 240 min after minocycline 45 mg/kg i.p., LPS pretreated)?
Answer: 10.7%±5.17

Question: What about the “% MPE” value ([1]; LPS 24 hours, minocycline 4 hours, 1000 pmol/mouse MCC22) of the same molecule?
Answer: 49.35±14.38 % MPE

Question: And the “FIG. 4 LPS/minocycline/MCC22 (value with interval)” value ([1]; LPS pretreated, minocycline 45 mg/kg i.p. prior to testing)?
Answer: 1016 (54-1558)

Question: What about the “ED50 (95% CI) i.p.” value ([2]; i.p.) of the same molecule?
Answer: 3.07 pmol/mouse

Question: What about the peak time ([2]; i.p.) of the same molecule?
Answer: 30 min

Question: What about the tolerance ([2]; i.p.) of the same molecule?
Answer: did not exhibit tolerance

Question: What about the “ED50 (95% CI) i.t.” value ([2]; i.t.) of the same molecule?
Answer: 0.0004 pmol/mouse

Question: What about the “change of potency with time” value ([2]; i.t.) of the same molecule?
Answer: increased in potency over 115 days

Question: What about the peak time ([2]; i.t.) of the same molecule?
Answer: 20 min

Question: And the tolerance ([2]; i.t.)?
Answer: no tolerance
